We go through one molecule from publication PMC8284461, “Piperidine-4-Carboxamides Target DNA Gyrase in Mycobacterium abscessus” (Antimicrobial Agents and Chemotherapy, 2021).

≈ marks a conversion by molar mass, not a printed value. Like-named read-outs stand apart in the source and are kept apart here.

The term MIC denotes the smallest concentration in the dilution series that meets the test's criterion for growth inhibition. A higher MIC goes with a less susceptible organism. A word on the clearance: it is the rate of elimination divided by the concentration. A lower clearance goes with a low capacity for elimination. In general, AUC refers to the area under the concentration-time curve, a measure of exposure. One may read the half-life as how long it takes for the measured level to halve. The bioavailability is dose-corrected exposure relative to a reference, in per cent.

Data set [1] deals with M. abscessus subsp. abscessus ATCC 19977. Description: MIC, broth microdilution. The format is cell-based, Mycobacterium abscessus. The conditions noted are these: Mycobacteroides abscessus, ATCC19977, 72 h; abscessus ATCC 19977 wild type; 90% growth inhibition, 3 days. The method, then: (§1) MIC was determined using the broth microdilution method in 96-well plates as described previously ([47]). Briefly, a 10-point 2-fold serial dilution of compounds was performed in 96-well plates (Costar 3370; Corning, USA) starting at twice the desired highest concentration. […] One hundred microliters of the bacterial suspension was seeded onto the 96-well plates containing 100 μl of the serially diluted compounds to give a final volume of 200 μl in each well with the final OD600 of 0.005. The plates were sealed with parafilm, placed onto wet paper towels in a lock-lock box and incubated for 3 days at 37°C with orbital shaking at 90 rpm. […] Absorbance values at day 3 were subtracted from the day 0 readout. Percent growth inhibition was calculated by dividing the absolute absorbance value of treated cells with untreated control and multiplying by 100. CLR was included in all MIC experiments as a positive control to monitor assay reproducibility. MIC was defined as 90% of growth inhibition relative to untreated controls.
In general terms: In broth dilution the organism is exposed to a series of concentrations in liquid medium.

The test system of data set [2] is M. abscessus subsp. abscessus Bamboo. Briefly: MIC, broth microdilution. The data set is classed as cell-based, Mycobacterium abscessus. The settings on record: Mycobacteroides abscessus, 72 h; abscessus Bamboo wild type; 90% growth inhibition, 3 days. As to the method:
as §1

The test system of data set [3] is M. abscessus subsp. abscessus K21. Description: MIC, broth microdilution. The data set is classed as cell-based, Mycobacterium abscessus. The settings on record: Mycobacteroides abscessus, 72 h, 90% growth inhibition, 3 days. The method, then: as §1
Data set [4] concerns M. abscessus subsp. abscessus M199. Description: MIC, broth microdilution. The conditions noted are these: Mycobacteroides abscessus, 72 h, 90% growth inhibition, 3 days. The format is cell-based, Mycobacterium abscessus. The method, then: as §1
The subject of data set [5] is M. abscessus subsp. abscessus M337. Description: MIC, broth microdilution. The format is cell-based, Mycobacterium abscessus. The conditions noted are these: Mycobacteroides abscessus, 72 h, 90% growth inhibition, 3 days. As to the method:
as §1

Data set [6] concerns M. abscessus subsp. abscessus M404. Description: MIC, broth microdilution. The data set is classed as cell-based, Mycobacterium abscessus. The conditions noted are these: Mycobacteroides abscessus, 72 h, 90% growth inhibition, 3 days. As to the method: as §1
The test system of data set [7] is M. abscessus subsp. abscessus M421. Briefly: MIC, broth microdilution. The data set is classed as cell-based, Mycobacterium abscessus. The settings on record: Mycobacteroides abscessus, 72 h, 90% growth inhibition, 3 days. As to the method: as §1
Data set [8] concerns M. abscessus subsp. abscessus M9. Briefly: MIC, broth microdilution. The format is cell-based, Mycobacterium abscessus. The conditions noted are these: Mycobacteroides abscessus, 72 h, 90% growth inhibition, 3 days. As to the method:
as §1

Data set [9] deals with M. abscessus subsp. bolletii CCUG 50184T. Briefly: MIC, broth microdilution. The data set is classed as cell-based, Mycobacterium abscessus. The conditions noted are these: Mycobacteroides abscessus, 72 h, 90% growth inhibition, 3 days. As to the method: as §1
In data set [10] the test system is M. abscessus subsp. bolletii M232. Description: MIC, broth microdilution. The format is cell-based, Mycobacterium abscessus. The settings on record: Mycobacteroides abscessus, 72 h, 90% growth inhibition, 3 days. The method, then: as §1
Data set [11] relates to M. abscessus subsp. bolletii M506. Briefly: MIC, broth microdilution. The format is cell-based, Mycobacterium abscessus. The settings on record: Mycobacteroides abscessus, 72 h, 90% growth inhibition, 3 days. The method, then: as §1
The test system of data set [12] is M. abscessus subsp. massiliense CCUG 48898T. Briefly: MIC, broth microdilution. The format is cell-based, Mycobacterium abscessus. The settings on record: Mycobacteroides abscessus, 72 h, 90% growth inhibition, 3 days. The method, then:
as §1

The test system of data set [13] is M. abscessus subsp. massiliense M111. Briefly: MIC, broth microdilution. The format is cell-based, Mycobacterium abscessus. The conditions noted are these: Mycobacteroides abscessus, 72 h, 90% growth inhibition, 3 days. The method, then:
as §1

In data set [14] the test system is M. abscessus subsp. abscessus ATCC 19977 MXF^r-2 (GyrA D96N). Briefly: MIC, resistant mutant. The data set is classed as cell-based, Mycobacterium abscessus. The conditions noted are these: Mycobacteroides abscessus, ATCC19977.
A short description of data set [15]: In vivo mouse pharmacokinetics. The settings on record: CD-1 mice. As to the method:
All animal experiments were approved by the Center for Discovery and Innovation, Institutional Animal Care and Use Committee, and were conducted in compliance with their guidelines. Female CD-1 mice were weighed and received a single dose of […] via the intravenous (i.v.) (5 mg/kg of body weight), oral (p.o.) (25 mg/kg), or subcutaneous (s.c.) (25 mg/kg) dosing route. The compound was formulated as a solution in 5% N,N-dimethylacetamide (DMA)/95% Milli-Q water vehicle. Blood samples were serially collected via the tail snip from each individual mouse at 0.017, 0.25, 1, 3, 5, and 8 h postdose following i.v. dosing and at 0.5, 1, 3, and 5 h postdose following p.o. and s.c. dosing. Blood (50 μl) was collected in capillary Microvette K2EDTA tubes (16.444.100; Sarstedt, Inc.) and kept on ice prior to centrifugation at 1,500 × g for 5 min. The supernatant (plasma) was transferred into a 96-well plate and stored at −80°C.
Liquid chromatography-tandem mass spectrometry (LC-MS/MS) analysis was performed on a Sciex Applied Biosystems Qtrap 6500+ triple-quadrupole mass spectrometer coupled to a Shimadzu Nexera 2 high-pressure liquid chromatography (HPLC) system to quantify each drug in plasma. Neat 1 mg/ml DMSO stocks for 844-TFM were serial diluted in 50:50 acetonitrile (ACN)/water to create standard curves and quality control (QC) spiking solutions. Standards and QCs were created by adding 10 μl of spiking solutions to 90 μl of drug-free plasma (CD-1 K2EDTA Mouse; Bioreclamation IVT). Twenty microliters of control, standard, QC, or study sample were added to 200 μl of ACN/methanol (MeOH) 50:50 protein precipitation solvent containing internal standard (10 ng/ml verapamil). Extracts were vortexed for 5 min and centrifuged at 4,000 rpm for 5 min. One hundred microliters of supernatant was transferred for HPLC-MS/MS analysis and diluted with 100 μl of Milli-Q deionized water.
Chromatography was performed on an Agilent Zorbax SB-C8 column (2.1 × 30 mm; particle size, 3.5 μm) using a reverse-phase gradient. Milli-Q deionized water with 0.1% formic acid was used for the aqueous mobile phase and 0.1% formic acid in ACN for the organic mobile phase. Multiple-reaction monitoring of precursor/product transitions in electrospray positive-ionization mode was used to quantify the analytes. The following multiple reaction monitoring (MRM) transitions were used for 844-TFM (459.10/133.00) and verapamil (455.4/165.2). Sample analysis was accepted if the concentrations of the quality control samples were within 20% of the nominal concentration. Data processing was performed using Analyst software (version 1.6.2; Applied Biosystems Sciex).

Where [16] appears, read: female, mouse, plasma, iv, i.v. 5 mg/kg, average (SD).

For `COc1ccc2nccc(NC(=O)C3CCN(CCc4ccc(C(F)(F)F)cc4)CC3)c2n1` [844-TFM], the MIC in [1] turned out to be 1.5 µM (≈ 0.688 µg/mL); in data set [2], 1.5 µM (≈ 0.688 µg/mL); in data set [3], 3.5 µM (≈ 1.6 µg/mL); in data set [4], 6.3 µM (≈ 2.89 µg/mL); in [5] it was 3.1 µM (≈ 1.42 µg/mL); in data set [6], 1.6 µM (≈ 0.734 µg/mL). Besides, the MIC stood at 1.6 µM (≈ 0.734 µg/mL) in data set [7]; 3.1 µM (≈ 1.42 µg/mL) in data set [8]; 2 µM (≈ 0.917 µg/mL) in data set [9]; 1.6 µM (≈ 0.734 µg/mL) in data set [10]; 3.1 µM (≈ 1.42 µg/mL) in data set [11]; 2 µM (≈ 0.917 µg/mL) in [12]. Besides, the MIC was determined as 6.3 µM (≈ 2.89 µg/mL) in [13] and 2 µM (≈ 0.917 µg/mL) in [14]. Besides, in [15] (i.v. 5 mg/kg, average (SD)), the V is on record as 0.811 (0.221) liter/kg. This molecule also gave a clearance in data set [15] (setting [16]) of 10.6 mL/min/kg. The k el in [15] (setting [16]) was 0.000192 s⁻¹. Also, the AUC turned out to be 5630 ng·h/mL in [15] (female, mouse, plasma, iv, i.v. 5 mg/kg, average (SD), read-out: AUC i.v.); 58 ng·h/mL in data set [15] (female, mouse, plasma, po, p.o. 25 mg/kg, average (SD), read-out: AUC p.o.); 1170 ng·h/mL in data set [15] (female, mouse, plasma, sc, s.c. 25 mg/kg, average (SD), read-out: AUC s.c.). Besides, the half-life in data set [15] (female, mouse, plasma, iv, i.v. 5 mg/kg, average (SD), read-out: elimination half-life (converted)) was 1.03 h. In addition, the bioavailability in data set [15] (female, mouse, plasma, oral, p.o. 25 mg/kg vs i.v. 5 mg/kg, read-out: p.o. bioavailability) is 0.05 to 0.2%; in [15] (female, mouse, plasma, po, p.o. 25 mg/kg vs i.v. 5 mg/kg, read-out: p.o. bioavailability) it was 0.15%; in data set [15] (female, mouse, plasma, sc, s.c. 25 mg/kg vs i.v. 5 mg/kg, read-out: s.c. bioavailability), 3%.
